Test results as given in patent US20240182460A1, “ALLOSTERIC CHROMENONE INHIBITORS OF PHOSPHOINOSITIDE 3-KINASE (PI3K) FOR THE TREATMENT OF DISEASE” (PETRA PHARMA CORPORATION, priority 2022, published 2024).

What was measured:
PI3Kα H1047R = molecular target: T1, PI3Kα H1047R (Homo sapiens, UniProt P42336, H1047R); assay: PI3Kα H1047R mutant in vitro cell based assay, MDA-MB-453 cells (AlphaLisa SureFire); conditions: MDA-MB-453 cell line, 0% FBS, 3 hours treatment
T1 construct: The MDA-MB-453 (ATCC-HTB-131) cell line (PI3Kα H1047R); host or cells: MDA-MB-453
T1 sequence (P42336 whole entry H1047R): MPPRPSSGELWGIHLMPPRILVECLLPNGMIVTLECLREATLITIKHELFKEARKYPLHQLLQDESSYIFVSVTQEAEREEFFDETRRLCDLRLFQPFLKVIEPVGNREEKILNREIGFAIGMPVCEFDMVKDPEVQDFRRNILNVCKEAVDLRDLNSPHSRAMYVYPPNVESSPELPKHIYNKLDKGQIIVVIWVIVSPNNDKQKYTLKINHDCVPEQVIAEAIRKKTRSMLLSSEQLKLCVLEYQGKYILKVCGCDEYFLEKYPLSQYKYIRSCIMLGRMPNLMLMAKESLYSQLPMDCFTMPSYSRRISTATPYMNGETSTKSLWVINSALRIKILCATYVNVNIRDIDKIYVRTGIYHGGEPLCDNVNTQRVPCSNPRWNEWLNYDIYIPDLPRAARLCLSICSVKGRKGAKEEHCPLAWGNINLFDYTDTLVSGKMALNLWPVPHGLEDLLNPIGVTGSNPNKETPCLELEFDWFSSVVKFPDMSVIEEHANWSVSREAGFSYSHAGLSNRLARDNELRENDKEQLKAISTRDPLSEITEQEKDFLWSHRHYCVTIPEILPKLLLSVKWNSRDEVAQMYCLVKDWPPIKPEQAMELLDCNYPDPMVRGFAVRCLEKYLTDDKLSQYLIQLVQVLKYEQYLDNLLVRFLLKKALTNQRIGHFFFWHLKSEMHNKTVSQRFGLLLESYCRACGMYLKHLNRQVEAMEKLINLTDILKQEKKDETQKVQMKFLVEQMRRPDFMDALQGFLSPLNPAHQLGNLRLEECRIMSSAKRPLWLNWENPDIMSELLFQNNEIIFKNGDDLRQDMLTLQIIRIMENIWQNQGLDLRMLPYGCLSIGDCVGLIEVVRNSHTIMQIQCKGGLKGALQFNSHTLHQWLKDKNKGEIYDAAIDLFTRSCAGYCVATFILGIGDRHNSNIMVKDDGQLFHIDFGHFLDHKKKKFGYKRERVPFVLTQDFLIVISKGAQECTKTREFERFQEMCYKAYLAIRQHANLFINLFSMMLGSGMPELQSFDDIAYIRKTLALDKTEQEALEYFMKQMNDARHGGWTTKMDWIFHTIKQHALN
T1 sequence (P27986 whole entry partner): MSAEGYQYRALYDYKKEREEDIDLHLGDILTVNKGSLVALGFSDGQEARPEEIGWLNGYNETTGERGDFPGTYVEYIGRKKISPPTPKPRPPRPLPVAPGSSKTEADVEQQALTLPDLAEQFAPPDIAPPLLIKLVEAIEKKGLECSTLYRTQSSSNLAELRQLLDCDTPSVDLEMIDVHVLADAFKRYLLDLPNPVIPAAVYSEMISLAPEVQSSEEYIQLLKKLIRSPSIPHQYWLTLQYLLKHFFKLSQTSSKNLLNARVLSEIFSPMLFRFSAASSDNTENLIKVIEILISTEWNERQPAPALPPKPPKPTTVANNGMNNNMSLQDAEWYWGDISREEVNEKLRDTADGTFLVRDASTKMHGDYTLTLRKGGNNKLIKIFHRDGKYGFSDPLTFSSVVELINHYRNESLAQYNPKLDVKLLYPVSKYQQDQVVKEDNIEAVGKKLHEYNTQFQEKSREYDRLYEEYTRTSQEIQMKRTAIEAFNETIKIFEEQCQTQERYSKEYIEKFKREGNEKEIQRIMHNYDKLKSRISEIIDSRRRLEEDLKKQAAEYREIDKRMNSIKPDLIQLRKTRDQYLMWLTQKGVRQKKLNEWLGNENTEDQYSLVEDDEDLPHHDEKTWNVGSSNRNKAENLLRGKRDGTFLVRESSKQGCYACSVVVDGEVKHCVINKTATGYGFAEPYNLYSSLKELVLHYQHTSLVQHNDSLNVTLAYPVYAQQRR
Excerpt: PI3K-Alpha Kinase (PI3Kα) Activity: Wild-Type PI3Kα, H1047R Mutant PI3Kα, and E545K Mutant PI3Kα In Vitro Cell Based Assays and Determination of IC50 Values for Inhibitors
The MDA-MB-453 (ATCC-HTB-131) cell line (PI3Kα H1047R) and MCF-7 (ATCC-HTB-22) cell line (PI3Kα E545K), MDA-MB-361 (ATCC-HTB-27) cell line (PI3Kα E545K), and SKBR3 (ATCC-HTB-30) cell line (wild type PI3Kα) were obtained from the American Type Culture Collection (Manassas, VA). MDA-MB-453 cells were maintained in Dulbecco's Modified Eagle Media (DMEM, Gibco 12430) supplemented with 10% Fetal Bovine Serum, heat inactivated (FBS HI, Gibco 10082), 1× non-essential amino acids (NEAA, Gibco 11140), 1 mM sodium pyruvate (Gibco 11360) and 1× Anti-Anti (Gibco 15240). MCF-7 cells were maintained in Minimum Essential Media (MEM) (Gibco 11095) supplemented with 10% Fetal Bovine Serum, heat inactivated (FBS HI, Gibco 10082), 1× non-essential amino acids (NEAA, Gibco 11140), 1 mM sodium pyruvate (Gibco 11360), 1× Anti-Anti (Gibco 15240) and 10 μg/mL human insulin (Sigma I 9278). MDA-MB-361 cells were maintained in Dulbecco's Modified Eagle Media (DMEM, Gibco 12430) supplemented with 20% Fetal Bovine Serum, heat inactivated (FBS HI, Gibco 10082), 1× non-essential amino acids (NEAA, Gibco 11140), 1 mM sodium pyruvate (Gibco 11360) and 1× Anti-Anti (Gibco 15240). SKBR3 cells were maintained in McCoy's 5A (Gibco 16600) supplemented with 10% Fetal Bovine Serum, heat inactivated (FBS HI, Gibco 10082), and 1× Anti-Anti (Gibco 15240). Cultures were maintained in a humidified incubator at 37° C. under 5% CO2/95% air.
For compound testing in 0% FBS, MDA-MB-453, MCF-7 and SKBR3 cells were seeded at a density of 1.5×10^4, 1.0×10^4, and 1.0×10^4 cells, respectively, per well in white 384-well plates in 20 μl of Minimum Essential Media (MEM) assay media with 1×NEAA, 1 mM sodium pyruvate, and 1 μg/mL human insulin (Sigma 19278) (Assay Medium); while MDA-MB-361 cells were seeded at a density of 1.5×10^4 per well in white 384-well plates in 20 μl Assay Medium without insulin. After plating, cells were allowed to attach overnight. Compounds dissolved in 10 mM stock solutions in DMSO were serially diluted 1:3 in DMSO to generate a 10-point dilution series and plated using an acoustic liquid handler system (Echo 550 Series Liquid Handler, Labcyte). A 5× intermediate compound dilution plate in MEM with 1×NEAA and 1 mM sodium pyruvate (150 μM starting compound concentration in 1.5% DMSO) was then prepared. Five μl of the intermediate serially diluted compounds were added to the cell plate to final concentrations ranging from […] in 0.3% DMSO. 0.3% DMSO alone was used to establish the maximum (MAX) signal and GDC-0032 at a final concentration of 1 μM was used as a reference compound for the minimum (MIN) signal. After 3 hours treatment, the medium was removed, and the cells were lysed in 10 μL of 1× SureFire Lysis buffer with shaking for 10 minutes at room temperature. The Acceptor Mix (Reaction Buffer 1+Reaction Buffer 2+Activation Buffer+SureFire Ultra Acceptor Beads) was prepared by diluting Activation buffer 25-fold in combined Reaction Buffer 1 and Reaction Buffer 2.
The Acceptor beads were diluted 50-fold in the combined Reaction Buffers. Five μL of Acceptor Mix was added to each well, the plate was sealed and covered with foil and incubated for 1 hour at room temperature. The Donor Mix (dilution buffer+SureFire Ultra Donor Beads) was prepared by diluting Donor Beads 50-fold in dilution buffer. Five μL of the Donor Mix was added to each well and the plate sealed and covered with foil and incubated for 1-2 hours at room temperature in the dark. The plates were read on a Neo2 plate reader instrument from Biotek using standard AlphaLisa settings.
Compounds were tested in duplicate and the % inhibition at each compound concentration was used to generate two dose response curves. One IC50 was generated using average % inhibition at each compound concentration. […]

[1] = Metabolic stability and intrinsic clearance in human liver microsomes (MICS); assay type: in vitro ADME; conditions: human, microsomes, pH 7.4
Method in brief: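 Parent depletion by LC-MS/MS, run in duplicate, gave in vitro t1/2 from the slope of ln(% remaining) versus time, converted to CLint (μL/min/mg protein). Incubations: 1 μM compound, microsomes at 0.5 mg/mL, pH 7.4 phosphate, 37° C, ±1 mM NADPH, timepoints 0.5, 5, 15, 30, 60 min.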

PI3Kα E545K [2] = molecular target: T2, PI3Kα E545K (Homo sapiens, UniProt P42336, E545K); assay: PI3Kα E545K mutant in vitro cell based assay, MDA-MB-361 cells; set-up: MDA-MB-361 (ATCC-HTB-27) cell line (PI3Kα E545K); host or cells: MDA-MB-361; conditions: MDA-MB-361 cell line, 0% FBS, no insulin, 3 hours treatment
T2 sequence (P42336 whole entry E545K): as the sequence (P42336 whole entry H1047R) above, with E545K, R1047H counted along it
T2 sequence (P27986 whole entry partner): as the sequence (P27986 whole entry partner) above
Method in brief: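 Compound exposure lasted 3 hours, in duplicate 10-point 1:3 dilutions at 0.3% DMSO final, on overnight-attached MDA-MB-361 cells carrying PI3Kα E545K in insulin-free, 0% FBS MEM. Lysates read by SureFire AlphaLISA. Relative IC50 from 4-parameter logistic fit versus DMSO and 1 μM GDC-0032 controls.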

PI3Kα E545K [3] = molecular target: T2, PI3Kα E545K; assay: PI3Kα E545K mutant in vitro cell based assay, MCF-7 cells; conditions: MCF-7 cell line, 0% FBS, 3 hours treatment
Method in brief: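 MCF-7 cells (PI3Kα E545K) in serum-free MEM with 1 μg/mL insulin were treated 3 h with 10-point 1:3 dilutions in 0.3% DMSO. Lysates were read by SureFire AlphaLisa. IC50 was fitted by 4-parameter logistic to % inhibition relative to DMSO (max) and 1 μM GDC-0032 (min), duplicates averaged.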

Row | Structure (SMILES) | IC50 (PI3Kα H1047R) | microsomal CLint at 1 μM [1] | IC50 (PI3Kα E545K [2]) | IC50 (PI3Kα E545K [3])
1 | Cc1cc([C@@H](C)Oc2ccc(Cl)nc2C(N)=O)c2oc(-c3cnn4c3CCC4)c(C)c(=O)c2c1 [Example 123A, 6-Chloro-3-[(1R)-1-[2-(5,6-dihydro-4H-pyrrolo[2,1-e]pyrazol-3-yl)-3,6-dimethyl-4-oxo-chromen-8-yl]ethoxy]pyridine-2-carboxamide] | < 100 nM | – | < 500 nM | –
2 | Cc1cc([C@@H](C)Oc2ccc(Cl)nc2C)c2oc(-c3ccccc3)c(C)c(=O)c2c1 [Example 1, 8-[(1R)-1-[(6-Chloro-2-methyl-3-pyridyl)oxy]ethyl]-3,6-dimethyl-2-phenyl-chromen-4-one] | < 100 nM | – | – | < 500 nM
3 | Cc1cc([C@@H](C)Oc2ccc(Cl)nc2C(N)=O)c2oc(-c3cnc(C)s3)c(C)c(=O)c2c1 [Example 63C, 6-Chloro-3-[(1R)-1-[3,6-dimethyl-2-(2-methylthiazol-5-yl)-4-oxo-chromen-8-yl]ethoxy]pyridine-2-carboxamide] | < 100 nM | – | < 500 nM | –
4 | Cc1cc([C@@H](C)Oc2ccc(Cl)nc2C(N)=O)c2oc(-c3cnn4c3OCC4(C)C)c(C)c(=O)c2c1 [Example 65C, 6-Chloro-3-[(1R)-1-[2-(3,3-dimethyl-2H-pyrazolo[5,1-b]oxazol-7-yl)-3,6-dimethyl-4-oxo-chromen-8-yl]ethoxy]pyridine-2-carboxamide] | < 100 nM | – | < 500 nM | –
5 | Cc1cc(C(C)Oc2ccc(Cl)nc2C)c2oc(-c3cccnc3)c(C)c(=O)c2c1 (single isomer, unassigned; isomer 2) [Example 10, 8-[1-[(6-Chloro-2-methyl-3-pyridyl)oxy]ethyl]-3,6-dimethyl-2-(3-pyridyl)chromen-4-one, Isomer 2] | < 100 nM | – | – | < 500 nM
6 | Cc1cc([C@@H](C)Oc2ccc(Cl)nc2C(N)=O)c2oc(-c3ccc4nc(C)cn4c3)c(C)c(=O)c2c1 [Example 57A, 6-Chloro-3-[(1R)-1-[3,6-dimethyl-2-(2-methylimidazo[1,2-a]pyridin-6-yl)-4-oxo-chromen-8-yl]ethoxy]pyridine-2-carboxamide] | < 100 nM | – | < 500 nM | –
7 | Cc1cc([C@@H](C)Oc2ccc(Cl)nc2C(N)=O)c2oc(-c3ccc4ncsc4c3)c(C)c(=O)c2c1 [Example 12B, 3-[(1R)-1-[2-(1,3-Benzothiazol-6-yl)-3,6-dimethyl-4-oxo-chromen-8-yl]ethoxy]-6-chloro-pyridine-2-carboxamide] | < 100 nM | – | < 500 nM | –
8 | Cc1cc([C@@H](C)Oc2ccc(Cl)nc2C(N)=O)c2oc(-c3cc(C)c4nn(C)cc4c3)c(C)c(=O)c2c1 [Example 45C, 6-Chloro-3-[(1R)-1-[2-(2,7-dimethylindazol-5-yl)-3,6-dimethyl-4-oxo-chromen-8-yl]ethoxy]pyridine-2-carboxamide] | < 100 nM | – | – | < 500 nM

Next, values leading:

Row | IC50 (PI3Kα H1047R) | microsomal CLint at 1 μM [1] | IC50 (PI3Kα E545K [2]) | IC50 (PI3Kα E545K [3]) | Structure (SMILES)
9 | < 100 nM | < 50 µL/min/mg | – | – | Cc1cc([C@@H](C)Oc2ccc(Cl)nc2-c2noc(=O)[nH]2)c2oc(-c3cnc4c(c3)OCO4)c(C)c(=O)c2c1 [Example 39A, 3-[6-Chloro-3-[(1R)-1-[2-([1,3]dioxolo[4,5-b]pyridin-6-yl)-3,6-dimethyl-4-oxo-chromen-8-yl]ethoxy]-2-pyridyl]-4H-1,2,4-oxadiazol-5-one]
10 | < 100 nM | – | < 500 nM | < 500 nM | Cc1cc([C@@H](C)Oc2ccc(Cl)nc2C(N)=O)c2oc(-c3ccc4nn(C)cc4c3)cc(=O)c2c1 [Example 52A, 6-Chloro-3-[(1R)-1-[6-methyl-2-(2-methylindazol-5-yl)-4-oxo-chromen-8-yl]ethoxy]pyridine-2-carboxamide]
11 | < 100 nM | – | – | < 500 nM | Cc1cc([C@@H](C)Oc2cccnc2S(N)(=O)=O)c2oc(-c3ccccc3)c(C)c(=O)c2c1 [Example 94C, 3-[(1R)-1-(3,6-Dimethyl-4-oxo-2-phenyl-chromen-8-yl)ethoxy]pyridine-2-sulfonamide]
12 | < 100 nM | – | < 500 nM | – | Cc1cc([C@@H](C)Oc2ccc(Cl)nc2S(N)(=O)=O)c2oc(-c3cnn(CCO)c3)c(C)c(=O)c2c1 [Example 61A, 6-Chloro-3-[(1R)-1-[2-[1-(2-hydroxyethyl)pyrazol-4-yl]-3,6-dimethyl-4-oxo-chromen-8-yl]ethoxy]pyridine-2-sulfonamide]
13 | < 100 nM | – | < 500 nM | – | Cc1cc([C@@H](C)Oc2ccc(Cl)nc2C(N)=O)c2oc(-c3ccc4nc(C)oc4c3)c(C)c(=O)c2c1 [Example 53C, 6-Chloro-3-[(1R)-1-[3,6-dimethyl-2-(2-methyl-1,3-benzoxazol-6-yl)-4-oxo-chromen-8-yl]ethoxy]pyridine-2-carboxamide]
14 | < 100 nM | – | < 500 nM | – | Cc1cc([C@@H](C)Oc2ccc(Cl)nc2C(N)=O)c2oc(-c3ccc4nn(CF)cc4c3)c(C)c(=O)c2c1 [Example 66C, 6-Chloro-3-[(1R)-1-[2-[2-(fluoromethyl)indazol-5-yl]-3,6-dimethyl-4-oxo-chromen-8-yl]ethoxy]pyridine-2-carboxamide]
15 | < 100 nM | – | < 500 nM | – | Cc1cc([C@@H](C)Oc2ccc(Cl)nc2S(N)(=O)=O)c2oc(-c3cnn(CCS(C)(=O)=O)c3)c(C)c(=O)c2c1 [Example 90C, 6-Chloro-3-[(1R)-1-[3,6-dimethyl-2-[1-(2-methylsulfonylethyl)pyrazol-4-yl]-4-oxo-chromen-8-yl]ethoxy]pyridine-2-sulfonamide]
16 | < 100 nM | – | < 500 nM | – | Cc1cc([C@@H](C)Oc2ccc(Cl)nc2C(N)=O)c2oc(-c3ccc4c(cnn4C)c3)c(C)c(=O)c2c1 [Example 40C, 6-Chloro-3-[(1R)-1-[3,6-dimethyl-2-(1-methylindazol-5-yl)-4-oxo-chromen-8-yl]ethoxy]pyridine-2-carboxamide]
17 | < 100 nM | < 50 µL/min/mg | – | – | Cc1cc([C@@H](C)Oc2ccc(Cl)nc2S(N)(=O)=O)c2oc(-c3cccnc3)c(C)c(=O)c2c1 [Example 42A, 6-Chloro-3-[(1R)-1-[3,6-dimethyl-4-oxo-2-(3-pyridyl)chromen-8-yl]ethoxy]pyridine-2-sulfonamide]
